The values that follow come from publication PMC3659552 (Journal of Ginseng Research, 2011).

Structures are written as SMILES.

The test concerns the target AChE (acetylcholineserase). Kind of test: Ellman spectrophotometric assay, […] nm. The following applies: acetylthiocholine iodide substrate; pH 8.0; 10 min preincubation. It counts as biochemical, Electrophorus electricus.

The compound `Nc1c2c(nc3ccccc13)CCCC2` [tacrine] came in with a concentration for half-maximal inhibition (IC50) of 0.825 µM.
